According to ChEMBL document CHEMBL5678818, “Discovery of potent SOS1 inhibitors that block RAS activation via disruption of the RAS-SOS1 interaction” (Proc Natl Acad Sci U S A, 2019):

Assays:
[1] = target: T1, Inhibitor of nuclear factor kappa-B kinase subunit epsilon (Homo sapiens) (UniProt Q14164); assay: Inhibition of IKK-epsilon (unknown origin) assessed as residual activity at 1000 nM by KINOMEscan analysis relative to control
T1 sequence (whole entry): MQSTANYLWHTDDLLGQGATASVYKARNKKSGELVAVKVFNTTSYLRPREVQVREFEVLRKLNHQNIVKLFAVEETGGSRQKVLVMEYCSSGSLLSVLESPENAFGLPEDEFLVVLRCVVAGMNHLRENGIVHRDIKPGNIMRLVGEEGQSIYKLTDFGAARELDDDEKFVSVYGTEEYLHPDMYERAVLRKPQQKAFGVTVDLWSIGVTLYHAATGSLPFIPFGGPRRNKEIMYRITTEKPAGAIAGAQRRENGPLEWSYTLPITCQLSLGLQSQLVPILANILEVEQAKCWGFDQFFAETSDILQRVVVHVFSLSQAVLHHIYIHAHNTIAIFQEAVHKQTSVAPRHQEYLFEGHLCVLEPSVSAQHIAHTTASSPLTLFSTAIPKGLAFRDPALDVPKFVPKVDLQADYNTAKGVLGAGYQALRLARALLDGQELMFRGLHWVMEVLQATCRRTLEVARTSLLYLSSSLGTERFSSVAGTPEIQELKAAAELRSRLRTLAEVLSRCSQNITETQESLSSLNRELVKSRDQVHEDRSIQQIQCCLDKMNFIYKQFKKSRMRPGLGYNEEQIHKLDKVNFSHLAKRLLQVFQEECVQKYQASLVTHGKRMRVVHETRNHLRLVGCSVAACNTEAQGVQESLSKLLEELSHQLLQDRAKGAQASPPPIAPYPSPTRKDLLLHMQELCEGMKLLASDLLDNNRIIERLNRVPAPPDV

[2] = target: T2, Serine/threonine-protein kinase ULK1 (Homo sapiens) (UniProt O75385); assay: Inhibition of ULK1 (unknown origin) assessed as residual activity at 1000 nM by KINOMEscan analysis relative to control
T2 sequence (whole entry): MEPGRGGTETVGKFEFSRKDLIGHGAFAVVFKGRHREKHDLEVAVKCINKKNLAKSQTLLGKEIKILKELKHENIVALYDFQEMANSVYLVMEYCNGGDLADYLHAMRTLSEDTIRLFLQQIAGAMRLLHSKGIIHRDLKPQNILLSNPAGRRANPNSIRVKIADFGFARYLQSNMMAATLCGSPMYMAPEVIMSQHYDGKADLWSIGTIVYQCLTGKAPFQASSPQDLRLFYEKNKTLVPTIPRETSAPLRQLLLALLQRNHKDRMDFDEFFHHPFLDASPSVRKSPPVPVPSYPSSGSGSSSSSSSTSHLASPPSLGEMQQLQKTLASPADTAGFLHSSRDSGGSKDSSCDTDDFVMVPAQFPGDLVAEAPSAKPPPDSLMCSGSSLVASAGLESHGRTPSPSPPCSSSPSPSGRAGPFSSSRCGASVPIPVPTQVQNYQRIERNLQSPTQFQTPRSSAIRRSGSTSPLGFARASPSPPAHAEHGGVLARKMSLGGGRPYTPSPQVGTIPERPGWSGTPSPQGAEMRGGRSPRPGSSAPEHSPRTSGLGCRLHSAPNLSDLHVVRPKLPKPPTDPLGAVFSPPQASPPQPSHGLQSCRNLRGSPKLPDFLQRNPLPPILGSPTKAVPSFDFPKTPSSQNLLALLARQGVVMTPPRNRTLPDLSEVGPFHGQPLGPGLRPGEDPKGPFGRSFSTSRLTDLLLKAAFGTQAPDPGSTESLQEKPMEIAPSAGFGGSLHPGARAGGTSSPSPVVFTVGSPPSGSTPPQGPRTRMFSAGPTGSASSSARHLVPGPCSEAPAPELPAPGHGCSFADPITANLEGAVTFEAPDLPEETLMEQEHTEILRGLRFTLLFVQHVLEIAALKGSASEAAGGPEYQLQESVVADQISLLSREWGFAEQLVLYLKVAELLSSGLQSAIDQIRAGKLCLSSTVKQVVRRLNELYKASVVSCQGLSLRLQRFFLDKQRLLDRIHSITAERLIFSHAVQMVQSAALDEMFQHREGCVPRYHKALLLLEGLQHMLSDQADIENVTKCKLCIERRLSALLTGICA

[3] = target: T3, Serine/threonine-protein kinase RIO3 (Homo sapiens) (UniProt O14730); assay: Inhibition of RIOK3 (unknown origin) assessed as residual activity at 1000 nM by KINOMEscan analysis relative to control
T3 sequence (whole entry): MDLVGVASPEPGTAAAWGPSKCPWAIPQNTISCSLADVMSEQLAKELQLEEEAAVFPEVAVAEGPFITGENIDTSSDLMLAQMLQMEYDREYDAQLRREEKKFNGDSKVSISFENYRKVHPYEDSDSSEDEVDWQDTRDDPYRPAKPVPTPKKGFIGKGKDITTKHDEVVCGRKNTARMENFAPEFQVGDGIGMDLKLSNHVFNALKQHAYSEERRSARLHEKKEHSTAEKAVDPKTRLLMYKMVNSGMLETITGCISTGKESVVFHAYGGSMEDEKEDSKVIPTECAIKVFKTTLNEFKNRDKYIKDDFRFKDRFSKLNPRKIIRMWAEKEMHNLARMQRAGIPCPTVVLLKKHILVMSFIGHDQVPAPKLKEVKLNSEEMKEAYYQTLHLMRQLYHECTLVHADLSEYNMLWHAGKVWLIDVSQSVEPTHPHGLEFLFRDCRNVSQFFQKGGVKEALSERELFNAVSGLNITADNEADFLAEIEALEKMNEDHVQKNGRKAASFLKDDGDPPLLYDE

[4] = target: Mitotic checkpoint serine/threonine-protein kinase BUB1 (Homo sapiens) (UniProt O43683); assay: Inhibition of BUB1 (unknown origin) assessed as residual activity at 1000 nM by KINOMEscan analysis relative to control
Sequence of Mitotic checkpoint serine/threonine-protein kinase BUB1 (Homo sapiens) (O43683 whole entry, looked up): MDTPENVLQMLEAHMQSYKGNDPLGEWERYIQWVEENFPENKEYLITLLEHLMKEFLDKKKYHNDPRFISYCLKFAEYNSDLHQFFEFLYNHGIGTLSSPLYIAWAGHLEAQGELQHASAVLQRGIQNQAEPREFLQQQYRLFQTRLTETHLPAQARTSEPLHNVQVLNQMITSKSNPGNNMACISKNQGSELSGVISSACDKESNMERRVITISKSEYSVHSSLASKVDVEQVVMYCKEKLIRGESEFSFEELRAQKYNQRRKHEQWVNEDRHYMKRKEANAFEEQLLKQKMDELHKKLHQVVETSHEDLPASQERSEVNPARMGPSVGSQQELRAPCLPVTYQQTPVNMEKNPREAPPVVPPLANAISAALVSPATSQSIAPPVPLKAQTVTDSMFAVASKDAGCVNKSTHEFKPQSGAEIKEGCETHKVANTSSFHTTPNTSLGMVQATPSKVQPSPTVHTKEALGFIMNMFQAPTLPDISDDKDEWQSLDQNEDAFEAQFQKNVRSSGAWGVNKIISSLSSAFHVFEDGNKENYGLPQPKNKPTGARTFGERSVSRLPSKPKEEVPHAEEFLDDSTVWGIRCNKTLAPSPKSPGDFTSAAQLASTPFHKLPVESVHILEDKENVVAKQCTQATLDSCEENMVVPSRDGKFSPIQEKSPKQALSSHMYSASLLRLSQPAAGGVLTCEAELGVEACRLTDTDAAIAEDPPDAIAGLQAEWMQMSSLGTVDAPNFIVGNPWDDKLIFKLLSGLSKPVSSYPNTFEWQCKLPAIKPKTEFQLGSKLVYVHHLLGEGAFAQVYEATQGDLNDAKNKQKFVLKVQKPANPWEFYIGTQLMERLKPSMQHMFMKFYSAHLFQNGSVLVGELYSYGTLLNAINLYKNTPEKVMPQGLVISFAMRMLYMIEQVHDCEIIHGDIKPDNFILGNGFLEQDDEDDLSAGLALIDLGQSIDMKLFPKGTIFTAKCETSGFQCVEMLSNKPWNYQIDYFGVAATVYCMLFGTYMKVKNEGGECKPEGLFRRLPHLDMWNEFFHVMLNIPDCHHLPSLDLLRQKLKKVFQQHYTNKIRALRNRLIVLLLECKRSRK

[5] = target: Calcium/calmodulin-dependent protein kinase type II subunit alpha (Homo sapiens) (UniProt Q9UQM7); assay: Inhibition of CAMK2A (unknown origin) assessed as residual activity at 1000 nM by KINOMEscan analysis relative to control
Sequence of Calcium/calmodulin-dependent protein kinase type II subunit alpha (Homo sapiens) (Q9UQM7 whole entry): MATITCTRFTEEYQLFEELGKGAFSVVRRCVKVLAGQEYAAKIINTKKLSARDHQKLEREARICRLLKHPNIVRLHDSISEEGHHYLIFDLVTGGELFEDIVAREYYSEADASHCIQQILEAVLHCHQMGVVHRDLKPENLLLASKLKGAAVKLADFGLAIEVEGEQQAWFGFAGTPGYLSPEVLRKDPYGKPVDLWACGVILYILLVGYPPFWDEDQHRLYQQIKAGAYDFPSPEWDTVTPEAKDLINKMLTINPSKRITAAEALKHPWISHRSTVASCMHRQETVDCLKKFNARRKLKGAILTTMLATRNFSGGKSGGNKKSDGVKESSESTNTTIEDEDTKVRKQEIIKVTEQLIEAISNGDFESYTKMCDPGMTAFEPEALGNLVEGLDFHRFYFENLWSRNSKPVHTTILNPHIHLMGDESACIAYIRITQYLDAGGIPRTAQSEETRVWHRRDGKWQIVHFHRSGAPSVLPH

[6] = target: Serine/threonine-protein kinase MRCK alpha (Homo sapiens) (UniProt Q5VT25); assay: Inhibition of MRCKA (unknown origin) assessed as residual activity at 1000 nM by KINOMEscan analysis relative to control
Sequence of Serine/threonine-protein kinase MRCK alpha (Homo sapiens) (Q5VT25 whole entry): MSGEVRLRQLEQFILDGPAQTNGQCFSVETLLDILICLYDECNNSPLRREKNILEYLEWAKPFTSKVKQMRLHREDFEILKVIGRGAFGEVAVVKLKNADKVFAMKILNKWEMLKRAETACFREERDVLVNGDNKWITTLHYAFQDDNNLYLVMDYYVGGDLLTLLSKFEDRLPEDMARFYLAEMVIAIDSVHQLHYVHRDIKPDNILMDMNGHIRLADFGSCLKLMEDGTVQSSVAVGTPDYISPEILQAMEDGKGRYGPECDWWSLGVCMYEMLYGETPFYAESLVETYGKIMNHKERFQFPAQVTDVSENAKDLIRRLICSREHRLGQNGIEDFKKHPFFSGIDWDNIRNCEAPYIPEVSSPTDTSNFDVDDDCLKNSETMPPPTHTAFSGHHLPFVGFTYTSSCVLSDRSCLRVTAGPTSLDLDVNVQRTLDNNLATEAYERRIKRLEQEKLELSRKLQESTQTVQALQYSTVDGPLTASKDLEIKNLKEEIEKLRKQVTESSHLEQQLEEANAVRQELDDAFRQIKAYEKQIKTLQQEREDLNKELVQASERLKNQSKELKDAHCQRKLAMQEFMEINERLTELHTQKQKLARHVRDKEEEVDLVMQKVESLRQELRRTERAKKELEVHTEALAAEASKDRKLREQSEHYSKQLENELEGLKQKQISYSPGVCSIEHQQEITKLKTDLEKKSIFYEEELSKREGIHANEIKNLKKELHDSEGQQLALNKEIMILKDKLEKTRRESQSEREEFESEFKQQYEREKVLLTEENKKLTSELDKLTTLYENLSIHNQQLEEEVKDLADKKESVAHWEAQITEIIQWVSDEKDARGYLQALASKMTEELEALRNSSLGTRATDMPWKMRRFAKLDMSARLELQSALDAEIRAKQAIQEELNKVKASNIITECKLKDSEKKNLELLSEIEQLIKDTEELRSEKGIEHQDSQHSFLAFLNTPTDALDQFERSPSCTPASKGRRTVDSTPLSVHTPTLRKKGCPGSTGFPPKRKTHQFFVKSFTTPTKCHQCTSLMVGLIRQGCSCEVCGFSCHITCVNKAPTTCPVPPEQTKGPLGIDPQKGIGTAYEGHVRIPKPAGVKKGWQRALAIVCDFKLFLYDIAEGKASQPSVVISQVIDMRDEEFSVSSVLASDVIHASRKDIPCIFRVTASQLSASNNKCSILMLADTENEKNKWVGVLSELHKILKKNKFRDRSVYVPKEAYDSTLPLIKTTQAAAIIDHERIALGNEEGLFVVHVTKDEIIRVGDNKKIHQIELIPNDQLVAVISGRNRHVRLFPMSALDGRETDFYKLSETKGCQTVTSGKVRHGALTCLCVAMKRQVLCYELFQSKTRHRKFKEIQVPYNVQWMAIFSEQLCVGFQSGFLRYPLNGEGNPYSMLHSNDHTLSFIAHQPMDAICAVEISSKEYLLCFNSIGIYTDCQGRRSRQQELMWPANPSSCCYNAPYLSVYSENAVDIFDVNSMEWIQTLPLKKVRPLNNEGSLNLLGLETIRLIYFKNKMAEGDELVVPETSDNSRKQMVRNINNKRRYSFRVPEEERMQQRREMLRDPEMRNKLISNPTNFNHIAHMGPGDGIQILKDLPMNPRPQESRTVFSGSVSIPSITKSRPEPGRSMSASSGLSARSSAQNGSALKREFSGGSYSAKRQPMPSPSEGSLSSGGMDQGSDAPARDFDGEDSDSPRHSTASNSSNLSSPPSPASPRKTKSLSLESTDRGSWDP

[7] = system: Tyrosine-protein kinase ABL1 (Homo sapiens), P00519 [H396P]; assay: Inhibition of nonphosphorylated ABL1 H396P mutant (unknown origin) assessed as residual activity at 1000 nM by KINOMEscan analysis relative to control
[8] = target: Serine/threonine-protein kinase 38-like (Homo sapiens) (UniProt Q9Y2H1); assay: Inhibition of NDR2 (unknown origin) assessed as residual activity at 1000 nM by KINOMEscan analysis relative to control
Sequence of Serine/threonine-protein kinase 38-like (Homo sapiens) (Q9Y2H1 2-464 limits assumed): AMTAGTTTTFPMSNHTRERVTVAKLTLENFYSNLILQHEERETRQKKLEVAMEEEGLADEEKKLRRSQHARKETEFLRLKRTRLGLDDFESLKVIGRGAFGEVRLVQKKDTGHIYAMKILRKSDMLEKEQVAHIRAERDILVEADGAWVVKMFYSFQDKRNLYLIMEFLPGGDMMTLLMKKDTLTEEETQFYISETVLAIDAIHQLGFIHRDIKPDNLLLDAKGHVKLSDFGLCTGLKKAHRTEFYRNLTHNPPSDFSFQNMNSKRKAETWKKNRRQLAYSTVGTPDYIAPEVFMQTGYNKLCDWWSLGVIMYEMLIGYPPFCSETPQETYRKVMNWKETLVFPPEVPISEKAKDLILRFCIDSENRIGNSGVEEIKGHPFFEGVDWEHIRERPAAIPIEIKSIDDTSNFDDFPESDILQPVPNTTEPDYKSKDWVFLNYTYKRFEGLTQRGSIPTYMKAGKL

[9] = target: SRSF protein kinase 2 (Homo sapiens) (UniProt P78362); assay: Inhibition of SRPK2 (unknown origin) assessed as residual activity at 1000 nM by KINOMEscan analysis relative to control
Sequence of SRSF protein kinase 2 (Homo sapiens) (P78362 whole entry, looked up): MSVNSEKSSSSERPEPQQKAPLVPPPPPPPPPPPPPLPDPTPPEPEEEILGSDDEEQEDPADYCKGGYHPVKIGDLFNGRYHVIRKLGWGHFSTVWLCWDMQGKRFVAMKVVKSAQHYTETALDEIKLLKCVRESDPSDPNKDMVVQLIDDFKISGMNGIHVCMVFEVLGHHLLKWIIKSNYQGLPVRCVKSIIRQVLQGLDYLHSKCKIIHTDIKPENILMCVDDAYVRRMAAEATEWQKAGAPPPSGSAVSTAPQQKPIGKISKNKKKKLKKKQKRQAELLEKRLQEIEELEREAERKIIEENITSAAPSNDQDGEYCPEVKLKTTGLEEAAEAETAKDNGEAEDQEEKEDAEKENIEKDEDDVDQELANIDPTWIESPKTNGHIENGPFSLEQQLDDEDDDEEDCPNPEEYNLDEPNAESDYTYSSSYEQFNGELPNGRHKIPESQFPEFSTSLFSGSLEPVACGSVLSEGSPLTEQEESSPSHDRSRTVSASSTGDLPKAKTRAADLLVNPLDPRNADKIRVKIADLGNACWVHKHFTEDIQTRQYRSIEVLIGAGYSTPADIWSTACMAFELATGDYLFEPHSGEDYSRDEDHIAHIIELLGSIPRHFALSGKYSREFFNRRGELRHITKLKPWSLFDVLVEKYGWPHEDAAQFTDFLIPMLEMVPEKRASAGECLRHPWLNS

Row | Compound | Activity [1] | Activity [2] | Activity [3] | Activity [4] | Activity [5] | Activity [6] | Activity [7] | Activity [8] | Activity [9]
1 | COc1cc2nc(C)nc(N[C@H](C)c3cccc(-c4cn[nH]c4)c3)c2cc1OC | 88% | 97% | 88% | 100% | 94% | 94% | 71% | 87% | 94%
2 | COc1cc2ncnc(N[C@H](C)c3cccc4ccccc34)c2cc1OC | 98% | 87% | 83% | 100% | 95% | 100% | 100% | 86% | 93%
